Columns and labels:
[1] = chemical chaperones that inhibit ER stress; cited from earlier work
sEH = biological target: T1, sEH (Homo sapiens, UniProt P34913); assay: sEH inhibition, assay not specified; type: biochemical
T1 sequence (P34913 1-555): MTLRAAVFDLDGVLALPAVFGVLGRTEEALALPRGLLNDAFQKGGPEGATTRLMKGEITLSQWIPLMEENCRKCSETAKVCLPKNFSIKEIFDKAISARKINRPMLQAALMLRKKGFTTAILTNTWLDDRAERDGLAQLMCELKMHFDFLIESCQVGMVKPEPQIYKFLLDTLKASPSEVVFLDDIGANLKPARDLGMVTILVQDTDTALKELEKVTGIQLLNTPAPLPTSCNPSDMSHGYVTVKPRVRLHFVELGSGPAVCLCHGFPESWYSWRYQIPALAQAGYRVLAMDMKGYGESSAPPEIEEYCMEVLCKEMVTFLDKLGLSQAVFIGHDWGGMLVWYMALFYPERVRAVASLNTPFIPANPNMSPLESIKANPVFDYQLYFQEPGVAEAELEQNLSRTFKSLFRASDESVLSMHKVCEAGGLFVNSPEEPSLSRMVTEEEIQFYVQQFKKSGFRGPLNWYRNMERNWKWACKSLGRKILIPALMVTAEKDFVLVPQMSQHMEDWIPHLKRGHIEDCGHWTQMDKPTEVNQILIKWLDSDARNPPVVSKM
Source text: “Soluble epoxide hydrolase” (“sEH”) is an epoxide hydrolase which in endothelial and smooth muscle cells converts EETs to dihydroxy derivatives called dihydroxyeicosatrienoic acids (“DHETs”). The cloning and sequence of the murine sEH is set forth in Grant et al., J. Biol. Chem. 268(23):17628-17633 (1993). The cloning, sequence, and accession numbers of the human sEH sequence are set forth in Beetham et al., Arch. Biochem. Biophys. 305(1):197-201 (1993). The amino acid sequence of human sEH is SEQ ID NO.:1, while the nucleic acid sequence encoding the human sEH is SEQ ID NO.:2. (The sequence set forth as SEQ ID NO.:2 is the coding portion of the sequence set forth in the Beetham et al. 1993 paper and in the NCBI Entrez Nucleotide Browser at accession number L05779, which include the 5′ untranslated region and the 3′ untranslated region.) The evolution and nomenclature of the gene is discussed in Beetham et al., DNA Cell Biol. 14(1):61-71 (1995). Soluble epoxide hydrolase represents a single highly conserved gene product with over 90% homology between rodent and human (Arand et al., FEBS Lett., 338:251-256 (1994)). Unless otherwise specified, as used herein, the terms “soluble epoxide hydrolase” and “sEH” refer to human sEH. […]

[2] = Metabolic stability, method not specified; type: in vitro ADME

O=C(O)CCCc1ccccc1 [4-PBA, 4-phenyl butyric acid]
DN disease progression [1]: slow DN disease progression

CCCCCCCCCCCCNC(=O)NC12CC3CC(CC(C3)C1)C2 [ADU, N-Adamantyl-N′-dodecyl urea]
activity on sEH (sEH): particularly high activity
metabolic stability [2]: metabolically stable

C[C@H](CCC(=O)NCCS(=O)(=O)O)[C@H]1CC[C@H]2[C@@H]3[C@@H](O)C[C@@H]4C[C@H](O)CC[C@]4(C)[C@H]3CC[C@]12C [TUDCA, tauroursodeoxycholic acid]
DN disease progression [1]: slow DN disease progression
